Assay results as given in US20220184222A1, “BICYCLE TOXIN CONJUGATES AND USES THEREOF” (BicycleTx Limited, priority 2019, published 2022).
Starred links: 1 amine or outer side, 2 acyl side, 3 side chain; linkers in the order of their positions; H or OH if unused. Non-standard residues stand in square brackets, D forms with d. Residues, ends and D or L forms follow the SMILES beside them. *: point of attachment. Dolaproine = CO[C@@H]([C@@H]1CCCN1)[C@@H](C)C(=O)O; Dil = CC[C@H](C)[C@H](NC)[C@@H](CC(=O)O)OC; PABC = O=C(OCc1ccc(N[*:1])cc1)[*:2]; X1 = O=C(CCCC(=O)*)ON1C(=O)CCC1=O; X2 = C[C@@H](N*)[C@@H](O)c1ccccc1; Cit = NC(=O)NCCC[C@H](N)C(=O)O; NMeV = CN[C@H](C(=O)O)C(C)C

What was measured:
pHH3 = experiment: In vivo PD in PC-3 CDX model: tumor pHH3 IHC, mitotic arrest (Example 4); parameters: species or system Mus Musculus; conditions: single dose
Procedure: The objective of the research is to evaluate the in vivo PK/PD of test agents in treatment of PC-3 CDX model in Balb/c nude mice.
Each mouse was inoculated subcutaneously at the right flank with PC-3 tumor cells (10×10^6) in 0.2 mL of PBS for tumor development. The animals were randomized and dosed when the average tumor volume reached approximately 440 mm^3 for the PK/PD study. The test article administration and time points in each group were shown in the experimental design table.
Mice were randomly grouped based on tumor volume and dosed as experimental design. Plasma, serum, muscle and tumors were collected at 1 h, 2 h, 8 h, 24 h, 48 h, 72 h and 96 h post dosing.
3 tumors of a mouse cohort were embed into 1 FFPE block.
• 5 μm FFPE tissue section loaded on Ventana XT; • Deparaffinization was selected; • EDTA based CC1 Standard heat antigen retravel was selected; • Option 1 (Protein blocker, Invitrogen Cat #1890588) was selected and incubate for 32 Min; • CC3 antibody (CST Cat #9661) 1:200 dilution was applied and incubated for 60 min at 37° C. • Apply One Drop of [OMap anti-Rb HRP] […]

CTG-2011 = experiment: Champions TumorGraft NSCLC PDX efficacy, model CTG-2011; assay type: in vivo, Mus musculus
Procedure: Mice were implanted subcutaneously into the left flank with tumor fragments from one of the various models. After tumors grew to an average of 150-300 mm^3, mice were treated by IV administration Q7Dx4 (n=2) with vehicle or 3 mg/kg of BT5528. Effects on tumor growth were evaluated by measuring percent tumor growth inhibition (% TGI), and the number of complete responders (CR), partial responders (PR), and tumor-free survivors (TFS). Tolerability was assessed by body weight loss, lethality, and clinical signs of adverse treatment-related side effects. Tumor volumes and body weights were measured twice a week.
Dosing solutions of BT5528 […] were pre-formulated. These dosing solutions were stored at −80° C. in the dark. On each day of dosing, a frozen aliquot of each test agent was thawed, stored at 2-8° C. and used for dosing.
The animals used in this study are described below: • Species: Mus musculus • Strain: Athymic Nude-Foxn1^nu (immune-compromised) • Source: Envigo (Indianapolis, Ind., USA) • Number of animals per group: 2 • Age and sex: At least 6-8 weeks of age at start of dosing, female • Weight: At least 18 grams at start of dosing • Acclimation period: 3 days
Stock mice were implanted with tumor cells from Champions TumorGraft® models CTG-0160, CTG-0170, CTG-0178, CTG-0192, CTG-0363, CTG-0808, CTG-0838, CTG-0848, CTG-1212, CTG-1502, CTG-1535, CTG-2011, CTG-2393, CTG-2539 or CTG-2540. After the tumors reached 1000-1500 mm^3, they were harvested and the tumor fragments (approximately 5×5×5 mm^3) were implanted SC in the left flank of the female study mice. Each animal was implanted with a specific passage lot and documented. Tumor growth was monitored twice a week using digital calipers and the tumor volume (TV) was calculated using the formula (0.52×[length×width^2]). When the TV reached an average volume of 150-300 mm^3, animals were matched by tumor size and assigned into Vehicle Control and treatment groups (n=2/group) and dosing was initiated on Day 0. After the initiation of dosing on Day 0, animals were weighed twice per week using a digital scale and TV was measured twice per week and also on the final day of study. The study was completed when the mean tumor volume of Vehicle Control reached 1500 mm^3 or up to Day 60, whichever occurred first.
Beginning on Day 0, animals were observed daily and weighed twice weekly using a digital scale; data including individual and mean gram weights, mean percent weight change versus Day 0 (% vD0) were recorded for each group and % vD0 plotted at study completion. […] Treatment resulting in a mean % vD0>20% and/or >10% mortality was considered above the maximum tolerated dose. Maximum mean % vD0 (weight nadir) for each treatment group was reported at study completion.
Inhibition of tumor growth was determined by calculating the percent TGI (100%×[1−(final MTV−initial MTV of a treated group)/(final MTV−initial MTV of the control group)]). Treatment started on Day 0.
Additional endpoints used to evaluate efficacy were: the number of complete responders (CR), partial responders (PR), and tumor-free survivors (TFS). PRs were considered exclusive of CRs, as were TFS.
Statistical analyses of anti-tumor efficacy were performed using one-way ANOVA followed by Dunnett's multiple comparisons test (GraphPad Prism version 8.2.0). Significant p-values=<0.05.
Animals were dosed according to the schedule on Table 7-1. The Vehicle Control reached endpoint on Day 18 and the study was terminated on Day 28.

[1] = CTG-2011, 3 mg/kg IV Q7Dx4, Day 0-28

CC[C@H](C)[C@@H]([C@@H](CC(=O)N1CCC[C@H]1[C@H](OC)[C@@H](C)C(=O)N[C@H](C)[C@@H](O)c1ccccc1)OC)N(C)C(=O)[C@@H](NC(=O)[C@H](C(C)C)N(C)C(=O)OCc1ccc(NC(=O)[C@H](CCCNC(N)=O)NC(=O)[C@@H](NC(=O)CCCC(=O)ON2C(=O)CCC2=O)C(C)C)cc1)C(C)C [BT5528] (X1-V[Cit][PABC][NMeV]V[Dil][Dolaproine]-X2)
mitotic arrest in tumor measurable by pHH3 IHC, time after dose (pHH3): ≤ 24 hours
mitotic arrest of tumor cells, time post-dose (pHH3): 24 to 48 h
MTV (mean tumor volume) (CTG-2011; 3 mg/kg IV Q7Dx4, Day 18): 826±48 mm^3
TGI (CTG-2011; 3 mg/kg IV Q7Dx4, Day 18): 57%
# CR (complete responders) (CTG-2011; [1]): 0 /0/0
# PR (partial responders) (CTG-2011; [1]): 0 /0/0
# TFS (tumor-free survivors) (CTG-2011; [1]): 0 /0/0
% TGI (CTG-2011; CTG-2011, 3 mg/kg IV Q7Dx4, Day 18): 57%
Day 18 Tumor Volume Mean TV ± SEM (CTG-2011; CTG-2011, BT5528 3 mg/kg IV Q7Dx4, Day 18, n=2): 826 ± 48 mm^3
